How the values were obtained:
[1] = biological target: T1, NEP (Mus musculus, UniProt Q61391); experiment: In vivo inhibition of NEP in mouse kidney after oral administration ([3H]HACBOGly binding); conditions: oral 2.6×10^-5 mole/kg, mean of three determinations
T1 construct: the kidney is rapidly set apart and homogenized at 4° C. in a Tris HCl buffer; from tissue; host or cells: mouse kidney (in vivo, then homogenate)
T1 sequence (Q61391 1-750): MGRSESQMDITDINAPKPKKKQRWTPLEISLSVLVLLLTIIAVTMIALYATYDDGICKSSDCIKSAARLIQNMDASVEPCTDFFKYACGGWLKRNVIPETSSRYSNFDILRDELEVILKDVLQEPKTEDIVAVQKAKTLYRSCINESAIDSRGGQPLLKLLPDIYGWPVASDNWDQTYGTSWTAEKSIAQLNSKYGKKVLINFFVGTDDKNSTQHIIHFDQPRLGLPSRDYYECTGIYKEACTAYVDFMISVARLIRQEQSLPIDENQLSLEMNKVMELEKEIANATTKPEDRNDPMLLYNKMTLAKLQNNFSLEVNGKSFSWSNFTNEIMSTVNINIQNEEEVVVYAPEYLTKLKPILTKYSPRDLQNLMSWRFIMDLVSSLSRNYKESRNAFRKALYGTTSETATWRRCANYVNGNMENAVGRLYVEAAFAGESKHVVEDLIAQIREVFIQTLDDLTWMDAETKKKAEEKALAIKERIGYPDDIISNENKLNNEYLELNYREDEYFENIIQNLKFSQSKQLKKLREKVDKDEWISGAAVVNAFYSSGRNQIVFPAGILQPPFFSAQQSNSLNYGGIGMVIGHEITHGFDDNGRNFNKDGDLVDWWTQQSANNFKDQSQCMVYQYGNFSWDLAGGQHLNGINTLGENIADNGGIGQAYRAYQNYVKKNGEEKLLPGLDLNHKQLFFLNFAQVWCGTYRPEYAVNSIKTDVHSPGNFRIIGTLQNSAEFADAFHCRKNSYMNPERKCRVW
Excerpt: (§1) [S,S,S]-N-[2-Adamantoylthiomethyl-1-oxo-3-phenylbutyl]alanine, a diastereomeric mixture of N-[2-acetylthiomethyl-1-oxo-3-phenylbutyl]alanine (four diastereomers) and a control solution of saline are orally administered at a concentration of 2.6×10^-5 mole/kg) in mice at t=o.
(§2) The inhibition of NEP in the kidney is expressed as the difference (in %) between specific [^3 H]HACBOGly binding in the absence of inhibitor (controls injected with saline) and in the presence of inhibitor. The inhibition values in Table V are the mean value of three determinations.

[2] = biological target: T2, ACE (Mus musculus, UniProt P09470); experiment: In vivo inhibition of ACE in mouse after oral administration ([3H]Trandaloprilate binding); conditions: oral 2.6×10^-5 mole/kg, mean of three determinations
T2 construct: from tissue; host or cells: mouse tissue in vivo
T2 sequence (P09470 35-1312): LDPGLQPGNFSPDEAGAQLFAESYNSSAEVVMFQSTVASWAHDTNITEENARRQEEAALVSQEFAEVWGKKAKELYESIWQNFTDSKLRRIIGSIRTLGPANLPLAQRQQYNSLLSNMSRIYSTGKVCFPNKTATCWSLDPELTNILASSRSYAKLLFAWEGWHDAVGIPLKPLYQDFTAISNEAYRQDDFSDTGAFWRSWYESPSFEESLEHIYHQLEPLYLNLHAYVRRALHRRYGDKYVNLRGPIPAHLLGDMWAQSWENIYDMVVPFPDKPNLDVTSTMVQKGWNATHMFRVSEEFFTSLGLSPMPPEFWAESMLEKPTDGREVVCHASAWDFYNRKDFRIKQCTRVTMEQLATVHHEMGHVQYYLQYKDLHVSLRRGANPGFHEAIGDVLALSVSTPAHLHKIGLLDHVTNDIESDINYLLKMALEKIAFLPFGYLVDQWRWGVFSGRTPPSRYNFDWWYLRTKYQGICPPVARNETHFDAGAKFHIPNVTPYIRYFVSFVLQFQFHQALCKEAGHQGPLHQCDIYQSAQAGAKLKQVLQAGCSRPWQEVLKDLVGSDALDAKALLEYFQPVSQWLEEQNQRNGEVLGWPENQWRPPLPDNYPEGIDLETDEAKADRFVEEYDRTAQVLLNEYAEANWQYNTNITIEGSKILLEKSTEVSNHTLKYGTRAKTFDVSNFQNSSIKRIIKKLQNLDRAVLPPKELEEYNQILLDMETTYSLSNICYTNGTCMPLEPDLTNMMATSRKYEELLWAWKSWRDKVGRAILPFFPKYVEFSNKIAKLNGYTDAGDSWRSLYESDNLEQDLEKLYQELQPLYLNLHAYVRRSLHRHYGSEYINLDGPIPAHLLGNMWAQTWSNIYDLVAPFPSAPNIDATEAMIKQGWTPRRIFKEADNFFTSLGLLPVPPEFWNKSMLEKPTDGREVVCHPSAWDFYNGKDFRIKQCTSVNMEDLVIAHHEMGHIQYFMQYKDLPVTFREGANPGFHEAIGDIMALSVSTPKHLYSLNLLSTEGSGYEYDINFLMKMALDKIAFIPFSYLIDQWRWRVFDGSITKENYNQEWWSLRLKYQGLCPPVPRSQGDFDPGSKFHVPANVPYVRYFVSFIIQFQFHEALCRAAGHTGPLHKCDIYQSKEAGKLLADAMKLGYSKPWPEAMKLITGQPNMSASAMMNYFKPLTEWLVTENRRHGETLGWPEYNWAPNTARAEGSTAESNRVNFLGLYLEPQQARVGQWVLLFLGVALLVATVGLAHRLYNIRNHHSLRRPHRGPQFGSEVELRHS
Excerpt: as §1, §2
The protocol in Example 91 is used also to determine […] inhibition except for the following: the selective tritiated ACE inhibitor is [^3 H]Trandaloprilate (0.5 μCi); and the non-specific binding is determined by the co-administration of [^3 H]Trandaloprilate with 1000 eq. of captopril.

[3] = biological target: T3, NEP (Rattus norvegicus, UniProt P07861); conditions: aids in reducing blood pressure; cited from earlier work
T3 construct: thereby aids in reducing blood pressure in the rat; host or cells: rat, in vivo
T3 sequence (P07861 1-750): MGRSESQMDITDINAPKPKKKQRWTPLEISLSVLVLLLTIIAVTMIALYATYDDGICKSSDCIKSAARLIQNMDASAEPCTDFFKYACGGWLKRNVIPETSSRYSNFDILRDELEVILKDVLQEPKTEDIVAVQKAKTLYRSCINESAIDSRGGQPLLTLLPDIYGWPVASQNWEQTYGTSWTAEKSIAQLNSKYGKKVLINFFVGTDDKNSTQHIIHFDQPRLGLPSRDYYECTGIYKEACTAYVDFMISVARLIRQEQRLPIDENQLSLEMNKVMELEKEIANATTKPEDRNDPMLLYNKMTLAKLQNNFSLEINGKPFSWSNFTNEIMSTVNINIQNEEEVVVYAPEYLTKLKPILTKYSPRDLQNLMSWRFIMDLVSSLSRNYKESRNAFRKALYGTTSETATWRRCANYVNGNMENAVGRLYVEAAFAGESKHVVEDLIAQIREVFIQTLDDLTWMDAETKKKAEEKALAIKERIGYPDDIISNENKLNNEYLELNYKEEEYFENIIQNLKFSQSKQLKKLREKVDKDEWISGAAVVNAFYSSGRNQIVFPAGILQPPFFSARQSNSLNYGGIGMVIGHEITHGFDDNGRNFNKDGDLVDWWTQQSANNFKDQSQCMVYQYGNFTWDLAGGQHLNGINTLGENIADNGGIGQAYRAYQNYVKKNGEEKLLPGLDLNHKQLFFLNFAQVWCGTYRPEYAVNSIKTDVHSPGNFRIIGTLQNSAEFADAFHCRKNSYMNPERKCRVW

Row | Structure (SMILES) | % Inhibition NEP ([1]; time 30 min) [%] | % Inhibition NEP ([1]; time 240 min) [%] | % Inhibition ACE ([2]; time 30 min) [%] | % Inhibition ACE ([2]; time 240 min) [%] | half-life of circulating auricular natriuretic peptide [3]
1 | CC(=O)SCC(C(=O)N[C@@H](C)C(=O)O)C(C)c1ccccc1 (stereo partly drawn) [91(B), N-[2-acetylthiomethyl-1-oxo-3-phenylbutyl]alanine] | 65 | 45 | 30 | 15 | 
2 | O=C(O)CNC(=O)C(CS)Cc1ccccc1 (racemic) [Thiorphan, N-(2-mercapto-methyl-3-phenyl-1-oxopropyl)glycine] |  |  |  |  | capable of augmenting the half-life of circulating auricular natriuretic peptide
3 | C[C@H](NC(=O)[C@@H](CSC(=O)C12CC3CC(CC(C3)C1)C2)[C@H](C)c1ccccc1)C(=O)O [91(A), [S,S,S]--N-[2-adamantoylthiomethyl-1-oxo-3-phenylbutyl]alanine] | 85 | 70 | 75 | 30 | 
